Measured values published in patent US20120270875A1, “PYRIMIDINE AMIDE COMPOUNDS” (priority 2011, published 2012).

Experiments:
[1] = target: sLFA-1/ICAM-1 (Homo sapiens, UniProt P05107+P20701, DEL701-769); assay: sLFA-1/ICAM-1 ELISA; format: binding; conditions: sLFA-1 coated plates, 5dICAM-Fc binding, ELISA; read-out: LFA-1/ICAM (IC50)
Procedure: (§1) sLFA-1/ICAM-1 ELISA and Mac-1/ICAM-1 ELISA
(§2) Plates were coated with either 50 μl/well of 2.0 ug/ml solution of sLFA-1 or Mac-1 receptor in divalent cation buffer (1 mM MnCl2, 0.14M NaCl, 20 mM HEPES pH 7.2) at 4° C. overnight. Two hundred fifty μl of blocking buffer (1% BSA in divalent cation buffer) was added to each well 1 hour at 37° C. Plates were washed 3 times with wash buffer (TBS/0.05% Tween-20/1 mM MnCl2). The compound to be tested was solubilized in DMSO. A series of 1:3 dilutions were performed to achieve a concentration range of 0.45 nM-3 uM. Fifty μl of binding buffer (0.5% BSA in divalent cation buffer)/1% DMSO and 50 μl of the solutions to be tested were added to the appropriate wells and incubated for 1 hour. Fifty μl of 5dICAM-Fc (27 ng/ml) was added to the appropriate wells and 50 μl binding buffer was added to non-specific binding wells and incubated for 2 hours and washed. One hundred μl of 1:4000 HRP-goat anti-huIgG was added to each well and incubated for 1 hour and washed. One hundred μl of 1:1 TMB solution was added to each well and developed for 20 min at room temperature. Color development was stopped by adding 100 μl H3PO4 to each well. Absorbance was measured at 450 nm.

[2] = tested on: PBMC's from two healthy donors; assay: Human Mixed Lymphocyte Reaction (hMLR); format: cell-based; conditions: 3H-thymidine incorporation, read-out: human MLR (IC50)
Procedure: Human Mixed Lymphocyte Reaction (hMLR)
PBMC's were isolated from two healthy donors by Ficoll gradient. Cells were resuspended with 4 mL assay media and counted with a Coulter Counter. Both cell populations were resuspended to 1×10^7/mL. Stimulator cells were irradiated for 2.5 min (2000 RAD) in cesium irradiator. 5×10^5 cells were added to duplicate wells of the plate. Included were quadruplicate wells receiving responder cells alone and stimulator cells alone. The compound to be tested was solubilized in DMSO. A series of 1:3 dilutions were performed to achieve a concentration range of 0.45 nM-3 uM. One hundred μl of the solutions to be tested were added to the cell plate (100 μl of 2% DMSO/media added to control wells). Plates were then incubated for 2.5 days at 37° C. with 5% CO2. Plates were pulsed with 50 μl/well 3H-thymidine at 0.5 uCi/well then incubated for 6 hours at 37° C. with 5% CO2. Cells were harvested using Cell Harvester (TomTec) and counted on TopCount (Perkin Elmer).

[3] = target: Mac-1/ICAM-1 (Homo sapiens, UniProt P05107+P11215); assay: Mac-1/ICAM-1 ELISA; conditions: Mac-1 coated plates, 5dICAM-Fc binding
Procedure: as §1, §2

Chain of Mac-1/ICAM-1 (P05107 23-769, other chains not shown): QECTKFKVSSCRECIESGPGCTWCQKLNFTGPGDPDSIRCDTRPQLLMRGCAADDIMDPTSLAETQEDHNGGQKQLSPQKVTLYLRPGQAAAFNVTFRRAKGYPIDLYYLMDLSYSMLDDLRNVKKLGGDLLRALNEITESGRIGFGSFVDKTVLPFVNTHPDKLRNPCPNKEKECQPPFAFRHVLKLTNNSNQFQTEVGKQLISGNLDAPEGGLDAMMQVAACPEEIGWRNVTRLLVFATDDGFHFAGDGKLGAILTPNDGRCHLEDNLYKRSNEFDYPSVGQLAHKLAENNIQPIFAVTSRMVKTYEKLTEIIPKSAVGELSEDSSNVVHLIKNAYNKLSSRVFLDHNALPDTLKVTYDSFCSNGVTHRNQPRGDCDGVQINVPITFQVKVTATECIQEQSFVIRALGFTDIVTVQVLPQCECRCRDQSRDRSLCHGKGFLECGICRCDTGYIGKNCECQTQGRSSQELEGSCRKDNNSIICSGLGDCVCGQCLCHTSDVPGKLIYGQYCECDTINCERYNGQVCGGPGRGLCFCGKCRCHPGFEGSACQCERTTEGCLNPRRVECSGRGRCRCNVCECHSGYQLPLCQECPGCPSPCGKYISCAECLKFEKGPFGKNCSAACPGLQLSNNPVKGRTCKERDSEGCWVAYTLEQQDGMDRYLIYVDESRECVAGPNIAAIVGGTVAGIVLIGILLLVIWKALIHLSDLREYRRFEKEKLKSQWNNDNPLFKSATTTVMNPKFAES
Chain of sLFA-1/ICAM-1 (P20701 26-1090 limits assumed, stated change not applied): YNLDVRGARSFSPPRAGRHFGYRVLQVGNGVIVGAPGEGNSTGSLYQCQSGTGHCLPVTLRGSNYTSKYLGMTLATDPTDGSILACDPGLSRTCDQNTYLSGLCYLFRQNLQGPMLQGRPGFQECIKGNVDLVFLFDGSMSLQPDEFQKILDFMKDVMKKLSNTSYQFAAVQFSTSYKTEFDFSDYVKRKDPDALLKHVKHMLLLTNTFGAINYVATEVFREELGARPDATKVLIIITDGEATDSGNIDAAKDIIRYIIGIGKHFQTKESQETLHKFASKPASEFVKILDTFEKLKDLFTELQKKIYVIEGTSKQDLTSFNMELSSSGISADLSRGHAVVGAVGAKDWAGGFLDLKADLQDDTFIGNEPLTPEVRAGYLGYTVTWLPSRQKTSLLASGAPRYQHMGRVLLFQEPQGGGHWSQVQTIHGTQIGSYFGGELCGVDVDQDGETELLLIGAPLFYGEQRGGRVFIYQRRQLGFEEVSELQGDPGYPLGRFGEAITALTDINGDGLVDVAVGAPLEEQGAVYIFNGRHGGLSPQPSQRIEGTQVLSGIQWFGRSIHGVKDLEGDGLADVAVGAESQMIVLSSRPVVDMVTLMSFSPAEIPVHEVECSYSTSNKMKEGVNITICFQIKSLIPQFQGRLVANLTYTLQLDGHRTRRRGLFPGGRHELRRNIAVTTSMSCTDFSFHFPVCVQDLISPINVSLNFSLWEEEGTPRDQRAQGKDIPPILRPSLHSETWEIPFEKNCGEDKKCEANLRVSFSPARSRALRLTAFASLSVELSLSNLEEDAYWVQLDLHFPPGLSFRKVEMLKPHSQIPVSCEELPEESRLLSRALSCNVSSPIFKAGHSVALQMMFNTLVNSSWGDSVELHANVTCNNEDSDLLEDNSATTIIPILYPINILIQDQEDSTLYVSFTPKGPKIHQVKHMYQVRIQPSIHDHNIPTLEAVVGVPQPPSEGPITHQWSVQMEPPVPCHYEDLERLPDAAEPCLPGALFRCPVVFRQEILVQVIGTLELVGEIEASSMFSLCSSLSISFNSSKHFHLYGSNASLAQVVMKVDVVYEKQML
Chain of sLFA-1/ICAM-1 (P05107 23-700 limits assumed, stated change not applied): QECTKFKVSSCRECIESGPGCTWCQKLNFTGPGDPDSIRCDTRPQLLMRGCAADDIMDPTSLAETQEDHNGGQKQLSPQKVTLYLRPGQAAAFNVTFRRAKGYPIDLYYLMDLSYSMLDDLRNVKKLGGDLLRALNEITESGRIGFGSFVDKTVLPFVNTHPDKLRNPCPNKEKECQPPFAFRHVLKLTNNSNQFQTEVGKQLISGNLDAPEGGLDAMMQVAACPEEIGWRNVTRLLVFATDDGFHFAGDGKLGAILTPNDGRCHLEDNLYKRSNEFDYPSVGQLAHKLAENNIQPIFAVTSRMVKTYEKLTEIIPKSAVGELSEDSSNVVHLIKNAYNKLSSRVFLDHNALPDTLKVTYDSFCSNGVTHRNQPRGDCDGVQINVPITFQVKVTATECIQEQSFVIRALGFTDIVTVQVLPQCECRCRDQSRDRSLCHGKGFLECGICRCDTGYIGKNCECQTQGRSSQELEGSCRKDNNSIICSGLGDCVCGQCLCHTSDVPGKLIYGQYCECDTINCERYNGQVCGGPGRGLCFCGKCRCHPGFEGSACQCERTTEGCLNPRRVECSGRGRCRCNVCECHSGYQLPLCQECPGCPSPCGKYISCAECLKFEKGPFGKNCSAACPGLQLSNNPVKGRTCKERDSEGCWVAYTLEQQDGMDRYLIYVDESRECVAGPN

| SMILES | IC50 [1] [nM] | IC50 [2] [nM] | IC50 [3] [nM] |
| --- | --- | --- | --- |
| Cc1nc(NC2CCc3cccc(O)c3C2)nc(C)c1C(=O)N[C@@H](CNC(=O)c1cnccn1)C(=O)O (stereo partly drawn) [Example 117, (S)-2-{[2-(8-Hydroxy-1,2,3,4-tetrahydro-naphthalen-2-ylamino)-4,6-dimethyl-pyrimidine-5-carbonyl]-amino}-3-[(pyrazine-2-carbonyl)-amino]-propionic acid] | 175 | 5110 | – |
| Cc1nc(NCCCc2ccc3cn[nH]c3c2)nc(C)c1C(=O)N[C@@H](CNC(=O)c1cccs1)C(=O)O [Example 63, (S)-2-({2-[3-(1H-Indazol-6-yl)-propylamino]-4,6-dimethyl-pyrimidine-5-carbonyl}-amino)-3-[(thiophene-2-carbonyl)-amino]-propionic acid] | 323 | – | 670 |
| Cc1nc(NCCCc2cccc3[nH]ncc23)nc(C)c1C(=O)N[C@@H](CNC(=O)c1cccs1)C(=O)O [Example 6, (S)-2-({2-[3-(1H-indazol-4-yl)-propylamino]-4,6-dimethyl-pyrimidine-5-carbonyl}-amino)3-[(thiophene-2-carbonyl)-amino]-propionic acid] | 21 | 374 | 20 |
| Cc1nc(NC/C=C/c2cccc(O)c2)nc(C)c1C(=O)N[C@@H](CNC(=O)c1cccs1)C(=O)O [Example 74, (S)-2-({2-[(E)-3-(3-Hydroxy-phenyl)-allylamino]-4,6-dimethyl-pyrimidine-5-carbonyl}-amino)-3-[(thiophene-2-carbonyl)-amino]-propionic acid] | 152 | 2060 | – |
| CC(=O)NC[C@H](NC(=O)c1c(C)nc(NCCCc2cccc3[nH]ncc23)nc1C)C(=O)O [Example 4, (S)-3-acetylamino-2-({2-[3-(1H-indazol-4-yl)-propylamino]-4,6-dimethyl-pyrimidine-5-carbonyl}-amino)-propionic acid] | 120 | 10000 | – |
| Cc1cnc(C(=O)NC[C@H](NC(=O)c2c(C)nc(NCCCc3cccc(O)c3)nc2C)C(=O)O)cn1 [Example 101, (S)-2-({2-[3-(3-Hydroxy-phenyl)-propylamino]-4,6-dimethyl-pyrimidine-5-carbonyl}-amino)-3-[(5-methyl-pyrazine-2-carbonyl)-amino]-propionic acid] | 52 | 6340 | – |
| CCc1nc(NCCCc2cccc(O)c2)nc(C)c1C(=O)N[C@@H](CNC(=O)c1cccs1)C(=O)O [Example 78, (S)-2-({4-Ethyl-2-[3-(3-hydroxy-phenyl)-propylamino]-6-methyl-pyrimidine-5-carbonyl}-amino)-3-[(thiophene-2-carbonyl)-amino]-propionic acid] | 20 | 766 | – |
| Cc1nc(NC/C=C\c2cccc(O)c2)nc(C)c1C(=O)N[C@@H](CNC(=O)c1cccs1)C(=O)O [Example 73, (S)-2-({2-[(Z)-3-(3-Hydroxy-phenyl)-allylamino]-4,6-dimethyl-pyrimidine-5-carbonyl}-amino)-3-[(thiophene-2-carbonyl)-amino]-propionic acid] | 56 | 809 | – |
| Cc1nc(NCCCc2cccc(O)c2)nc(C)c1C(=O)N[C@@H](CNC(=O)c1cnccn1)C(=O)O [Example 93, (S)-2-({2-[3-(3-hydroxy-phenyl)-propylamino]-4,6-dimethyl-pyrimidine-5-carbonyl}-amino)-3-[(pyrazine-2-carbonyl)-amino]-propionic acid] | 29 | 2300 | – |
| Cc1nc(NCCCc2cccc(O)c2)nc(C)c1C(=O)N[C@@H](CNC(=O)OCc1ccccc1)C(=O)O [Example 111, (S)-3-Benzyloxycarbonylamino-2-({2-[3-(3-Hydroxy-phenyl)-propylamino]-4,6-dimethyl-pyrimidine-5-carbonyl}-amino)-propionic acid] | 56 | 4880 | – |
| Cc1nc(OCCCc2cccc(O)c2)nc(C)c1C(=O)N[C@@H](CNC(=O)c1cccs1)C(=O)O [Example 3, (S)-2-({2-[3-(3-hydroxy-phenyl)-propoxy]-4,6-dimethyl-pyrimidine-5-carbonyl}-amino)-3-[(thiophene-2-carbonyl)-amino]-propionic acid] | 32 | 574 | 57 |
| Cc1nc(NCCCc2cccc(O)c2)nc(C)c1C(=O)N[C@@H](CNC(=O)c1cc(O)cc(O)c1)C(=O)O [Example 81] | 12 | 73 | 39 |
| Cc1nc(NCCCc2cc(O)cc(F)c2)nc(C)c1C(=O)N[C@@H](CNC(=O)c1cccs1)C(=O)O [Example 64, (S)-2-({2-[3-(3-Fluoro-5-hydroxy-phenyl)-propylamino]-4,6-dimethyl-pyrimidine-5-carbonyl}-amino)-3-[(thiophene-2-carbonyl)-amino]-propionic acid] | 35 | 1350 | 23 |
| Cc1nc(CCCCc2cccc(O)c2)nc(C)c1C(=O)N[C@@H](CNC(=O)c1cccs1)C(=O)O [Example 1, (S)-2-({2-[4-(3-hydroxy-phenyl)-butyl]-4,6-dimethyl-pyrimidine-5-carbonyl}-amino)-3-[(thiophene-2-carbonyl)-amino]-propionic acid] | 73 | 4460 | 441 |
| Cc1nc(NCCCc2cccc(O)c2)nc(C)c1C(=O)N[C@@H](CNC(=O)c1cscn1)C(=O)O [Example 46, (S)-2-({2-[3-(3-hydroxy-phenyl)-propylamino]-4,6-dimethyl-pyrimidine-5-carbonyl}-amino)-3-[(thiazole-4-carbonyl)-amino]-propionic acid] | 26 | 753 | – |
| Cc1ccc(C(=O)NC[C@H](NC(=O)c2c(C)nc(NCCCc3cccc(O)c3)nc2C)C(=O)O)s1 [Example 87, (S)-2-({2-[3-(3-hydroxy-phenyl)-propylamino]-4,6-dimethyl-pyrimidine-5-carbonyl}-amino)-3-[(5-methyl-thiophene-2-carbonyl)-amino]-propionic acid] | 4 | 1430 | – |
| Cc1nc(NCCCc2cccc(O)c2)nc(C)c1C(=O)N[C@@H](CNC(=O)N(C)C)C(=O)O [Example 113, (S)-3-(3,3-Dimethyl-ureido)-2-({2-[3-(3-Hydroxy-phenyl)-propylamino]-4,6-dimethyl-pyrimidine-5-carbonyl}-amino)-propionic acid] | 74 | 4180 | – |
| Cc1nc(NCCCc2cccc(O)c2)nc(C)c1C(=O)N[C@@H](CNC(=O)c1cccs1)C(=O)O [Example 8, (S)-2-({2-[3-(3-hydroxy-phenyl)-propylamino]-4,6-dimethyl-pyrimidine-5-carbonyl}-amino)3-[(thiophene-2-carbonyl)-amino]-propionic acid] | 40 | 678 | 120 |
| Cc1nc(NCCCc2cccc(O)c2)nc(C)c1C(=O)N[C@@H](CNC(=O)c1cccc(O)c1)C(=O)O [Example 83] | 28 | 138 | 25 |
| Cc1nc(NCC#Cc2cccc3[nH]ncc23)nc(C)c1C(=O)N[C@@H](CNC(=O)c1cccs1)C(=O)O [Example 62, (S)-2-({2-[3-(1H-Indazol-4-yl)-prop-2-ynylamino]-4,6-dimethyl-pyrimidine-5-carbonyl}-amino)-3-[(thiophene-2-carbonyl)-amino]-propionic acid] | 80 | 3810 | 45 |
| Cc1nc(NCCCc2cccc(O)c2)ncc1C(=O)N[C@@H](CNC(=O)c1cccs1)C(=O)O [Example 76, (S)-2-({2-[3-(3-Hydroxy-phenyl)-propylamino]-4-methyl-pyrimidine-5-carbonyl}-amino)-3-[(thiophene-2-carbonyl)-amino]-propionic acid] | 9 | 1760 | – |
| Cc1nc(NCCCc2cc(O)ccc2Cl)nc(C)c1C(=O)N[C@@H](CNC(=O)c1cccs1)C(=O)O [Example 68, (S)-2-({2-[3-(2-Chloro-5-hydroxy-phenyl)-propylamino]-4,6-dimethyl-pyrimidine-5-carbonyl}-amino)-3-[(thiophene-2-carbonyl)-amino]-propionic acid] | 291 | – | – |
